From ChEMBL document CHEMBL1201862, “PubChem BioAssay data set” (2004)
Calls of active or inactive are those of the source.

Experiments:
[1] = target: Heat shock protein HSP 90-alpha (Homo sapiens, UniProt P07900); test: Luminescence-based dose response biochemical high throughput screening assay for inhibitors of the Heat Shock Protein 90 (HSP90). [Related pubchem assays: 1831 (Summary AID.), 1846 (Confirmation screen.), 1789 (Primary screen.)]
Protein skinhead-1 = target: T1, Protein skinhead-1 (Caenorhabditis elegans, UniProt P34707); format: functional
T1 sequence (P34707 whole entry): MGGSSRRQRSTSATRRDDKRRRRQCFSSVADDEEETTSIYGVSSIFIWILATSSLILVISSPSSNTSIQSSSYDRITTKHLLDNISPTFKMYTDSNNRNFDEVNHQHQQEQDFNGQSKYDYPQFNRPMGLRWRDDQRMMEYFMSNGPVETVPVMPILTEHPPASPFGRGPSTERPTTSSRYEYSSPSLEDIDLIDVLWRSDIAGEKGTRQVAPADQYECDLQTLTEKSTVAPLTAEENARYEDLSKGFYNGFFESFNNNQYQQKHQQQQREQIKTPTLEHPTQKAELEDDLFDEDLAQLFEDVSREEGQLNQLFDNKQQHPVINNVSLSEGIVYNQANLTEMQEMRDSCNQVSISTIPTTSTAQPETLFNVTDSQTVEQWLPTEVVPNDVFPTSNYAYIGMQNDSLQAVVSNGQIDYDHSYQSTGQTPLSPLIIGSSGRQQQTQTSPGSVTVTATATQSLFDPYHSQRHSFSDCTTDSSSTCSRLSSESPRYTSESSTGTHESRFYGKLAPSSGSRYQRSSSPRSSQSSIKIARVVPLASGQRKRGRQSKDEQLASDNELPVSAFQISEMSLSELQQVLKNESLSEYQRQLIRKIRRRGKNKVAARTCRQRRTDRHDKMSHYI

[2] = target: T2, Histone-lysine N-methyltransferase NSD2 (Homo sapiens, UniProt O96028); format: biochemical
T2 sequence (O96028 whole entry): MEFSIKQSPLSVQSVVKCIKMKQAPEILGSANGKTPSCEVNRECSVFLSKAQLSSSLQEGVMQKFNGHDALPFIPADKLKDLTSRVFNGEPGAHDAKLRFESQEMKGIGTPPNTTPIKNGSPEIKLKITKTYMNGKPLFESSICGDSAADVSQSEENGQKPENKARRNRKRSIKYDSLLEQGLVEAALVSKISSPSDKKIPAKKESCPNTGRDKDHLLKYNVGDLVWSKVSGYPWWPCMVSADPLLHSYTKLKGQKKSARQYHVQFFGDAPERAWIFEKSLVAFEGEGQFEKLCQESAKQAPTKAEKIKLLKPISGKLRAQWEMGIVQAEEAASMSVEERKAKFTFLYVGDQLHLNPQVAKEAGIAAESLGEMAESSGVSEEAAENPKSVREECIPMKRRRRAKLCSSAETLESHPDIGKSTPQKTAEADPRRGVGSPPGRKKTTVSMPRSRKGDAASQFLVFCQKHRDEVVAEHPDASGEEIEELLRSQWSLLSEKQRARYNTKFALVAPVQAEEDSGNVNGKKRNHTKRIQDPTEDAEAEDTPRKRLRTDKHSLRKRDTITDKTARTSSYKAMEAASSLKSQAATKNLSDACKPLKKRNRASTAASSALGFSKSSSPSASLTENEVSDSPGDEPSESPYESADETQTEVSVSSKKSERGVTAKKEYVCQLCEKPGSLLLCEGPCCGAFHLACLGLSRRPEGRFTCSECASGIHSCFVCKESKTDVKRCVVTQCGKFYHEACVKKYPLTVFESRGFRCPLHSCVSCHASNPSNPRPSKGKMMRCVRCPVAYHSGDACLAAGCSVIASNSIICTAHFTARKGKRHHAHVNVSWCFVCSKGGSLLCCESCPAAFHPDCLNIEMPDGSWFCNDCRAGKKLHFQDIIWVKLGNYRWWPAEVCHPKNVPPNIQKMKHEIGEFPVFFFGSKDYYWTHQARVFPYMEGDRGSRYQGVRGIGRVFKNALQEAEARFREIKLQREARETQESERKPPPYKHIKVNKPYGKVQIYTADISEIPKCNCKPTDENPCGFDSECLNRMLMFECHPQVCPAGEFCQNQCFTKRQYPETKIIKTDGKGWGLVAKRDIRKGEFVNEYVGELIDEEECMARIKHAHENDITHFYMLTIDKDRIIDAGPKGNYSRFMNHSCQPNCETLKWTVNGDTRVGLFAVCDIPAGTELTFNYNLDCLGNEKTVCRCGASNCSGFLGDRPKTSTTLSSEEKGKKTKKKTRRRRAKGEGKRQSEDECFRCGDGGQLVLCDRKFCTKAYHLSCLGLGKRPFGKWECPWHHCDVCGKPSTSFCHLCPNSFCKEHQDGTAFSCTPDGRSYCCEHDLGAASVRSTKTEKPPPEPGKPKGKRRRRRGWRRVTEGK

[3] = system: Streptococcus sp. 'group A'; test: Streptococcus pyogenes SK(-)GAS viability under kanamycin – luminescence, BacTiterGlo, confirmation, counter-screen for streptokinase expression inhibitor project, dose response (AID 1900); format: functional, organism-based

Row | Compound | IC50 [1] | IC50 (Protein skinhead-1) | AC50 [2] | EC50 [3]
1 | COC(=O)C[C@]1(C(=O)OC)CN(C#N)N(c2ccc(Cl)cc2)C12c1ccccc1-c1ccccc12 | 3.75 µM (active) |  |  | 
2 | O=C(Nc1ccc(C#Cc2ccccc2)cc1)C1CC1 |  | > 100 µM (inactive) |  | 
3 | CCCCn1c(NC(=O)c2ccco2)c(C(=O)OCC)c2nc3ccccc3nc21 |  |  | 2.94 µM (active) | 
4 | Cc1ccccc1NC1=C/C(=N\S(=O)(=O)c2ccc(C(=O)O)cc2)c2ccccc2C1=O | 0.522 µM (active) |  | 0.117 µM (active) | 1.67 µM (active)
5 | COc1ccc(-c2cc(-c3ccc(C)cc3)[nH]n2)c(O)c1 |  | > 100 µM (inactive) |  | 11 µM (active)
